The results in this text go back to ChEMBL document CHEMBL5303573, “Mapping human microbiome drug metabolism by gut bacteria and their genes” (Nature, 2019).

The nature of data set [1]: The drug is tested on Odoribacter splanchnicus strain: fecal isolate for biotransformation. The drug concentrations were measured before and after a 12-h incubation by liquid-chromatography-coupled mass spectrometry (LC–MS). The conditions noted are these: 2 µM.
For data set [2] the following is noted: anaerostipes sp., 12 h, 2 µM.
Description: The drug is tested on Anaerostipes sp. strain: fecal isolate for biotransformation. The drug concentrations were measured before and after a 12-h incubation by liquid-chromatography-coupled mass spectrometry (LC–MS)
A short description of data set [3]: The drug is tested on Bacteroides finegoldii strain: DSM17565 for biotransformation. The drug concentrations were measured before and after a 12-h incubation by liquid-chromatography-coupled mass spectrometry (LC–MS). The conditions noted are these: 2 µM.
Data set [4] can be described thus: The drug is tested on Bacteroides caccae strain: ATCC43185 for biotransformation. The drug concentrations were measured before and after a 12-h incubation by liquid-chromatography-coupled mass spectrometry (LC–MS). Conditions: 2 µM.
The nature of data set [5]: The drug is tested on Eubacterium ventriosum strain: ATCC27560 for biotransformation. The drug concentrations were measured before and after a 12-h incubation by liquid-chromatography-coupled mass spectrometry (LC–MS). The format is ADME. On the set-up: dose 2 uM, timepoint 0 vs 12 hours. The conditions noted are these: 2 µM.
Data set [6] in a line: The drug is tested on Bacteroides fragilis strain: HMW615 for biotransformation. The drug concentrations were measured before and after a 12-h incubation by liquid-chromatography-coupled mass spectrometry (LC–MS). The conditions noted are these: 2 µM.
Data set [7] is described as follows: The drug is tested on Ruminococcus lactaris strain: ATCC29176 for biotransformation. The drug concentrations were measured before and after a 12-h incubation by liquid-chromatography-coupled mass spectrometry (LC–MS). The conditions noted are these: 2 µM.
For data set [8] the following is noted: akkermansia muciniphila, 12 h, 2 µM.
Description: The drug is tested on Akkermansia muciniphila strain: ATCC BAA-835 for biotransformation. The drug concentrations were measured before and after a 12-h incubation by liquid-chromatography-coupled mass spectrometry (LC–MS)
For data set [9] the following is noted: segatella copri, 12 h, 2 µM.
Description: The drug is tested on Prevotella copri strain: DSM18205 for biotransformation. The drug concentrations were measured before and after a 12-h incubation by liquid-chromatography-coupled mass spectrometry (LC–MS)
A short description of data set [10]: The drug is tested on Providencia stuartii strain: ATCC25827 for biotransformation. The drug concentrations were measured before and after a 12-h incubation by liquid-chromatography-coupled mass spectrometry (LC–MS). Conditions: 2 µM.
The nature of data set [11]: The drug is tested on Blautia luti strain: DSM14534 for biotransformation. The drug concentrations were measured before and after a 12-h incubation by liquid-chromatography-coupled mass spectrometry (LC–MS). Conditions: 2 µM. Set-up: dose 2 uM, timepoint 0 vs 12 hours. The format is ADME.
Data set [12] in a line: The drug is tested on Anaerococcus hydrogenalis strain: DSM7454 for biotransformation. The drug concentrations were measured before and after a 12-h incubation by liquid-chromatography-coupled mass spectrometry (LC–MS). Conditions: 2 µM.
Data set [13] in a line: The drug is tested on Bacteroides sp. WH2 strain: WH2 for biotransformation. The drug concentrations were measured before and after a 12-h incubation by liquid-chromatography-coupled mass spectrometry (LC–MS). The conditions noted are these: bacteroides sp. wh2, 12 h, 2 µM.
The conditions of data set [14]: bacteroides thetaiotaomicron, 12 h, 2 µM.
Description: The drug is tested on Bacteroides thetaiotaomicron strain: 3731 for biotransformation. The drug concentrations were measured before and after a 12-h incubation by liquid-chromatography-coupled mass spectrometry (LC–MS)
For data set [15] the following is noted: bacteroides intestinalis, 12 h, 2 µM.
Description: The drug is tested on Bacteroides intestinalis strain: DSM17393 for biotransformation. The drug concentrations were measured before and after a 12-h incubation by liquid-chromatography-coupled mass spectrometry (LC–MS)
Data set [16] can be described thus: The drug is tested on Parabacteroides merdae strain: ATCC43184 for biotransformation. The drug concentrations were measured before and after a 12-h incubation by liquid-chromatography-coupled mass spectrometry (LC–MS). The conditions noted are these: 2 µM.
Data set [17] can be described thus: The drug is tested on Bifidobacterium longum subsp. Infantis strain: CCUG52486 for biotransformation. The drug concentrations were measured before and after a 12-h incubation by liquid-chromatography-coupled mass spectrometry (LC–MS). The conditions noted are these: 2 µM.
For data set [18] the following is noted: limosilactobacillus reuteri cf48-3a, 12 h, 2 µM.
Description: The drug is tested on Lactobacillus reuteri CF48-3A strain: BEI HM-102 for biotransformation. The drug concentrations were measured before and after a 12-h incubation by liquid-chromatography-coupled mass spectrometry (LC–MS)
For data set [19] the following is noted: parabacteroides distasonis, 12 h, 2 µM.
Description: The drug is tested on Parabacteroides distasonis strain: ATCC8503 for biotransformation. The drug concentrations were measured before and after a 12-h incubation by liquid-chromatography-coupled mass spectrometry (LC–MS)
For data set [20] the following is noted: parabacteroides johnsonii, 12 h, 2 µM.
Description: The drug is tested on Parabacteroides johnsonii strain: DSM18315 for biotransformation. The drug concentrations were measured before and after a 12-h incubation by liquid-chromatography-coupled mass spectrometry (LC–MS)

For the molecule `OC(CCN1CCCCC1)(c1ccccc1)C1CC2C=CC1C2` (stereo not drawn) [BIPERIDEN], the “Bacterial Biotransformation” value in data set [1], in data set [2], in data set [3], in data set [4], in [5] and in data set [6] was “Compound NOT metabolized” each time. For the same molecule, the “Bacterial Biotransformation” value in data set [7], in data set [8], in data set [9], in data set [10], in [11] and in [12] was “Compound NOT metabolized” in each case. Also, the “Bacterial Biotransformation” value in data set [13], in data set [14], in [15], in [16], in data set [17] and in data set [18] was “Compound NOT metabolized” each time.

With `CN1C(=O)CCS(=O)(=O)C1c1ccc(Cl)cc1` (stereo not drawn) [CHLORMEZANONE], the “Bacterial Biotransformation” value in data set [1], in data set [2], in data set [3], in data set [4], in data set [5] and in [6] was “Compound NOT metabolized” in each case. For the same molecule, the “Bacterial Biotransformation” value in data set [8], in data set [9], in [10], in data set [19], in [12] and in data set [15] was “Compound NOT metabolized” throughout. Moreover, the “Bacterial Biotransformation” value in data set [17] and in data set [18] was “Compound NOT metabolized” each time.

For the molecule `CC(C)NCC(O)COc1ccc(CCOCC2CC2)cc1` (stereo not drawn) [BETAXOLOL], the “Bacterial Biotransformation” value in data set [1], in [2], in [3], in data set [4], in data set [5] and in data set [6] was “Compound NOT metabolized” in each case. Also, the “Bacterial Biotransformation” value in data set [7], in [8], in data set [10], in [11], in data set [12] and in [13] was “Compound NOT metabolized” in each case. In addition, the “Bacterial Biotransformation” value in [14], in data set [15], in data set [16], in [17] and in data set [18] was “Compound NOT metabolized” each time.

For the molecule `CC(C)(C)NCC(O)c1cc(Cl)c(N)c(Cl)c1` (stereo not drawn) [CLENBUTEROL], the “Bacterial Biotransformation” value in data set [1], in data set [2], in [3], in data set [4], in data set [5] and in [20] was “Compound NOT metabolized” throughout. The “Bacterial Biotransformation” value in data set [7], in data set [8], in data set [9], in data set [10], in data set [11] and in data set [19] was “Compound NOT metabolized” each time. The “Bacterial Biotransformation” value in [12], in data set [13], in [14], in data set [15], in [16] and in data set [17] was “Compound NOT metabolized” throughout. Besides, in data set [18], the “Bacterial Biotransformation” value is listed as “Compound NOT metabolized”.

On to `NS(=O)(=O)c1cc2c(cc1Cl)N=C(CSCc1ccccc1)NS2(=O)=O` [BENZTHIAZIDE], for which the “Bacterial Biotransformation” value in data set [1], in data set [2], in [4], in data set [6], in data set [8] and in data set [9] was “Compound NOT metabolized” each time. Moreover, the “Bacterial Biotransformation” value in data set [11], in [19], in [12], in [13], in data set [14] and in data set [15] was “Compound NOT metabolized” each time. Besides, the “Bacterial Biotransformation” value in data set [16], in [17] and in data set [18] was “Compound NOT metabolized” in each case.

With `CCCC(C)(COC(N)=O)COC(=O)NC(C)C` (stereo not drawn) [CARISOPRODOL], the “Bacterial Biotransformation” value is listed as “Compound NOT metabolized” in data set [2]; “Compound NOT metabolized” in data set [3]; “Compound NOT metabolized” in [4]; “Compound metabolized” in data set [5]; “Compound metabolized” in [6]; “Compound NOT metabolized” in data set [8]. In addition, the “Bacterial Biotransformation” value in data set [9] is given as “Compound metabolized”; in data set [10], “Compound NOT metabolized”; in data set [19] it was “Compound metabolized”; in data set [13], “Compound NOT metabolized”; in data set [15], “Compound NOT metabolized”; in data set [16], “Compound NOT metabolized”. Further, the “Bacterial Biotransformation” value in data set [17] is recorded as “Compound NOT metabolized”.

Take `CN(C)CCC=C1c2ccccc2C=Cc2ccccc21` [CYCLOBENZAPRINE]: the “Bacterial Biotransformation” value in data set [1], in data set [2], in [3], in data set [4], in data set [5] and in data set [6] was “Compound NOT metabolized” each time. Further, the “Bacterial Biotransformation” value in data set [7], in [9], in data set [10], in data set [11], in [19] and in [12] was “Compound NOT metabolized” each time. The “Bacterial Biotransformation” value in data set [13], in [15], in data set [16], in data set [17] and in [18] was “Compound NOT metabolized” each time.
